From patent US11959086B2, “Dual transit peptides for targeting polypeptides” (BASF AGRO B.V., priority 2016, dated 2024)

Assays:
Assay in all cases: Herbicide injury evaluation of Arabidopsis plants, greenhouse
Format in all cases: in vivo
[1] = tested on: transgenic Arabidopsis thaliana, transgene SEQ ID NO 117; details: Table 3, scale 0-100
[2] = tested on: Wildtype/non-transgenic Arabidopsis thaliana; details: scale 0-100
[3] = tested on: transgenic Arabidopsis thaliana, transgene SEQ ID NO 118; details: scale 0-100
[4] = tested on: transgenic Arabidopsis thaliana, transgene SEQ ID NO 121; details: Table 3, scale 0-100
[5] = tested on: transgenic Arabidopsis thaliana, transgene SEQ ID NO 128; details: Table 3, scale 0-100
[6] = tested on: transgenic Arabidopsis thaliana, transgene SEQ ID NO 120; details: Table 4, scale 0-100

C#CCN1C(=O)COc2cc(F)c(N3C(=O)C4=C(CCCC4)C3=O)cc21 [Flumioxazin, flumioxazin]
Herbicide injury evaluation 14 days after herbicide treatment ([1]; SEQ ID NO 117 C, 140 g ai/ha + 1% MSO): 94
Herbicide injury evaluation 14 days after herbicide treatment ([1]; SEQ ID NO 117 C, 280 g ai/ha + 1% MSO): 95
Herbicide injury evaluation 14 days after herbicide treatment ([1]; SEQ ID NO 117 C, 420 g ai/ha + 1% MSO): 95
Herbicide injury evaluation 14 days after herbicide treatment ([1]; SEQ ID NO 117 I, 140 g ai/ha + 1% MSO): 90
Herbicide injury evaluation 14 days after herbicide treatment ([1]; SEQ ID NO 117 I, 280 g ai/ha + 1% MSO): 94
Herbicide injury evaluation 14 days after herbicide treatment ([1]; SEQ ID NO 117 I, 420 g ai/ha + 1% MSO): 97
Herbicide injury evaluation 14 days after herbicide treatment ([2]; Table 3, 140 g ai/ha + 1% MSO): 100
Herbicide injury evaluation 14 days after herbicide treatment ([2]; Table 3, 280 g ai/ha + 1% MSO): 100
Herbicide injury evaluation 14 days after herbicide treatment ([2]; Table 3, 420 g ai/ha + 1% MSO): 100
Herbicide injury evaluation 14 days after herbicide treatment ([2]; Table 4, 140 g ai/ha + 1% MSO): 100
Herbicide injury evaluation 14 days after herbicide treatment ([2]; Table 4, 280 g ai/ha + 1% MSO): 100
Herbicide injury evaluation 14 days after herbicide treatment ([2]; Table 4, 420 g ai/ha + 1% MSO): 100
Herbicide injury evaluation 14 days after herbicide treatment ([3]; Table 3, SEQ ID NO 118 Q, 140 g ai/ha + 1% MSO): 48
Herbicide injury evaluation 14 days after herbicide treatment ([3]; Table 3, SEQ ID NO 118 Q, 280 g ai/ha + 1% MSO): 60
Herbicide injury evaluation 14 days after herbicide treatment ([3]; Table 3, SEQ ID NO 118 Q, 420 g ai/ha + 1% MSO): 60
Herbicide injury evaluation 14 days after herbicide treatment ([3]; Table 3, SEQ ID NO 118 R, 140 g ai/ha + 1% MSO): 23
Herbicide injury evaluation 14 days after herbicide treatment ([3]; Table 3, SEQ ID NO 118 R, 280 g ai/ha + 1% MSO): 28
Herbicide injury evaluation 14 days after herbicide treatment ([3]; Table 3, SEQ ID NO 118 R, 420 g ai/ha + 1% MSO): 28
Herbicide injury evaluation 14 days after herbicide treatment ([3]; Table 4, SEQ ID NO 118 Q, 140 g ai/ha + 1% MSO): 60
Herbicide injury evaluation 14 days after herbicide treatment ([3]; Table 4, SEQ ID NO 118 Q, 280 g ai/ha + 1% MSO): 65
Herbicide injury evaluation 14 days after herbicide treatment ([3]; Table 4, SEQ ID NO 118 Q, 420 g ai/ha + 1% MSO): 70
Herbicide injury evaluation 14 days after herbicide treatment ([3]; Table 4, SEQ ID NO 118 R, 140 g ai/ha + 1% MSO): 63
Herbicide injury evaluation 14 days after herbicide treatment ([3]; Table 4, SEQ ID NO 118 R, 280 g ai/ha + 1% MSO): 60
Herbicide injury evaluation 14 days after herbicide treatment ([3]; Table 4, SEQ ID NO 118 R, 420 g ai/ha + 1% MSO): 35
Herbicide injury evaluation 14 days after herbicide treatment ([4]; SEQ ID NO 121 G, 140 g ai/ha + 1% MSO): 100
Herbicide injury evaluation 14 days after herbicide treatment ([4]; SEQ ID NO 121 G, 280 g ai/ha + 1% MSO): 100
Herbicide injury evaluation 14 days after herbicide treatment ([4]; SEQ ID NO 121 G, 420 g ai/ha + 1% MSO): 100
Herbicide injury evaluation 14 days after herbicide treatment ([4]; SEQ ID NO 121 H, 140 g ai/ha + 1% MSO): 100
Herbicide injury evaluation 14 days after herbicide treatment ([4]; SEQ ID NO 121 H, 280 g ai/ha + 1% MSO): 100
Herbicide injury evaluation 14 days after herbicide treatment ([4]; SEQ ID NO 121 H, 420 g ai/ha + 1% MSO): 100
Herbicide injury evaluation 14 days after herbicide treatment ([5]; SEQ ID NO 128 D, 140 g ai/ha + 1% MSO): 100
Herbicide injury evaluation 14 days after herbicide treatment ([5]; SEQ ID NO 128 D, 280 g ai/ha + 1% MSO): 94
Herbicide injury evaluation 14 days after herbicide treatment ([5]; SEQ ID NO 128 D, 420 g ai/ha + 1% MSO): 93
Herbicide injury evaluation 14 days after herbicide treatment ([5]; SEQ ID NO 128 E, 140 g ai/ha + 1% MSO): 93
Herbicide injury evaluation 14 days after herbicide treatment ([5]; SEQ ID NO 128 E, 280 g ai/ha + 1% MSO): 99
Herbicide injury evaluation 14 days after herbicide treatment ([5]; SEQ ID NO 128 E, 420 g ai/ha + 1% MSO): 100
Herbicide injury evaluation 14 days after herbicide treatment ([6]; SEQ ID NO 120 J, 140 g ai/ha + 1% MSO): 95
Herbicide injury evaluation 14 days after herbicide treatment ([6]; SEQ ID NO 120 J, 280 g ai/ha + 1% MSO): 85
Herbicide injury evaluation 14 days after herbicide treatment ([6]; SEQ ID NO 120 J, 420 g ai/ha + 1% MSO): 95
Herbicide injury evaluation 14 days after herbicide treatment ([6]; SEQ ID NO 120 M, 140 g ai/ha + 1% MSO): 75
Herbicide injury evaluation 14 days after herbicide treatment ([6]; SEQ ID NO 120 M, 280 g ai/ha + 1% MSO): 98
Herbicide injury evaluation 14 days after herbicide treatment ([6]; SEQ ID NO 120 M, 420 g ai/ha + 1% MSO): 98
